Assays:
α-chymotrypsin = α-chymotrypsin (Bos taurus, UniProt P00766); assay: In vitro stability of insulin in the presence of a protein degrading enzyme (reverse-phase HPLC); format: in vitro ADME; details: after 120 minutes; insulin 100 μM, α-chymotrypsin 1.5 μg/10 μl; FIG. 1
Description: FIG. 1: Insulin (100 μM; native) stability in the presence of an equivalent quantity of insulin/ε-amino-caproic acid (acepramin, Sigma, MO) in a solution containing α-chymotrypsin (1.5 μg/10 μl).
In vitro stability means the biodegradation of a primitive formulation of the insulin-acepramin mixture in the presence of a protein degrading enzyme, as compared to native insulin (results of reverse-phase HPLC tests).

[1] = Blood sugar after oral (feeding probe) insulin with or without ε-amino-caproic acid in starved rats (Example 1); format: in vivo, Male Wistar rats; details: n=4
Description: (§1) Male Wistar rats (Charles-River Laboratories, Budapest, Hungary) were used for the experiments. Before the experiment the animals were starved for 16 hours. The experiments started between 8 and 9 h in the morning. 2×6 groups were formed in a random manner, with 4 animals by group. The animals were pretreated through a feeding probe according to the followings: group 1: with 1 g/kg of ε-amino-caproic acid; group 2: with 0.1 U/kg of insulin; group 3: with 0.1 U/kg of insulin and 1 g/kg of ε-amino-caproic acid; group 4: with 1.0 U/kg of insulin; group 5: with 1.0 U/kg of insulin and 1 g/kg of ε-amino-caproic acid; and group 6: with a solvent.

[2] = Blood sugar (glucose oxidase method) after intraduodenal insulin-acepramin mixture with standard casein (Example 2); format: in vivo, male Wistar rats; details: mean±S.D., n=8
Description: (§2) Data: mean±S.D. with n=8 by group. Statistics: t-test with Bonferroni correction, after ANOVA.

[3] = Plasma insulin after oral (feeding probe) insulin with or without ε-amino-caproic acid in starved rats (Example 1); format: in vivo, Male Wistar rats; details: n=4
Description: as §1

[4] = Plasma insulin immunoreactivity (radioimmunoassay) after intraduodenal insulin-acepramin mixture with standard casein (Example 2); details: mean±S.D., n=8
Description: Healthy male Wistar rats (230-250 g) were given an ε-amino-caproic acid—human recombinant insulin mixture with standard casein intraduodenally. The endpoint of the measurement was the blood sugar measured with the glucose oxidase method, and the plasma insulin immunoreactivity measured with radioimmunoassay 15 and 60 minutes after the administration of the insulin-acepramin formulation (aqueous suspension).
as §2

[5] = 15-minute values, insulin 0.1 IU/kg (combination: + 1 g/kg ε-amino-caproic acid)
[6] = 15-minute values, insulin 1.0 IU/kg (combination: + 1 g/kg ε-amino-caproic acid)
[7] = 60-minute values, insulin 0.1 IU/kg (combination: + 1 g/kg ε-amino-caproic acid)
[8] = 60-minute values, insulin 1.0 IU/kg (combination: + 1 g/kg ε-amino-caproic acid)

insulin: biotechnologically produced human recombinant insulin, given alone (native, unformulated)
insulin degraded (α-chymotrypsin): more than 80%
Blood sugar [1, 5]: 5.96 ± 0.21 mmol/L
Blood sugar [1, 6]: 5.77 ± 0.22 mmol/L
Blood sugar [1, 7]: 4.97 ± 0.40 mmol/L
Blood sugar [1, 8]: 4.67 ± 0.41 mmol/L
Blood sugar ([2]; 15th minute, insulin 0.1 IU/kg (combination: + 100 mg/kg Acepramin), standard casein): 7.9 ± 0.92 mmol/L
Blood sugar ([2]; 15th minute, insulin 1.0 IU/kg (combination: + 100 mg/kg ε-amino-caproic acid), standard casein): 7.7 ± 2.31 mmol/L
Blood sugar ([2]; 60th minute, insulin 0.1 IU/kg (combination: + 100 mg/kg ε-amino-caproic acid), standard casein): 7.9 ± 0.83 mmol/L
Blood sugar ([2]; 60th minute, insulin 1.0 IU/kg (combination: + 100 mg/kg ε-amino-caproic acid), standard casein): 6.9 ± 0.62 mmol/L
Plasma insulin [3, 5]: 10.75 ± 2.21 μU/ml
Plasma insulin [3, 6]: 38.25 ± 6.95 μU/ml
Plasma insulin [3, 7]: 10.8 ± 1.68 μU/ml
Plasma insulin [3, 8]: 23.87 ± 4.05 μU/ml
Plasma insulin ([4]; 15th minute, insulin 0.1 IU/kg (combination: + 100 mg/kg Acepramin)): 14.4 ± 1.51 μU/ml
Plasma insulin ([4]; 15th minute, insulin 1.0 IU/kg (combination: + 100 mg/kg ε-amino-caproic acid)): 27.5 ± 3.95 μU/ml
Plasma insulin ([4]; 60th minute, insulin 0.1 IU/kg (combination: + 100 mg/kg ε-amino-caproic acid)): 17.3 ± 2.94 μU/ml
Plasma insulin ([4]; 60th minute, insulin 1.0 IU/kg (combination: + 100 mg/kg ε-amino-caproic acid)): 17.1 ± 2.06 μU/ml

NCCCCCC(=O)O [ε-amino-caproic acid, reference compound]
Blood sugar ([1]; 15-minute values, 1 g/kg ε-amino-caproic acid alone): 5.43 ± 0.55 mmol/L
Blood sugar ([1]; 60-minute values, 1 g/kg ε-amino-caproic acid alone): 5.37 ± 0.15 mmol/L
Blood sugar ([2]; 15th minute, 100 mg/kg ε-amino-caproic acid alone): 6.9 ± 1.41 mmol/L
Blood sugar ([2]; 60th minute, 100 mg/kg ε-amino-caproic acid alone): 7.3 ± 0.95 mmol/L
